Results published in patent US11292807B2 (OCEANS LTD., priority 2015, dated 2022).
Like-named read-outs stand apart in the source and are kept apart here.

Legend:
A549 (lung carcinoma) = assay: CIMA assay (colorimetric indicator of metabolic activity), cell viability, A549; conditions: for Fold change in viability AVG / In vitro activity against cancer cell lines, A549 AVG: A549
Description: (§1) Stock solutions of the extracts were prepared in dimethylsulfoxide (DMSO) at 10 mg/mL and stored in 200 μl aliquots at −20° C. until analysis. This preparation ensured that the DMSO delivered to cells in culture never exceeded 1%.
(§2) Prepared extracts were assessed following chronic exposure conditions in which cells were seeded at 2×10^3 cells/well (96 well-plate) and incubated with test compounds for 72 h. Each compound was evaluated over a range of concentrations (0, 10, 25, 50 or 100 μg/ml). Cell proliferation was initially assessed using a standard colorimetric indicator of metabolic activity (CIMA) assay. In this assay, tetrazole reduction was evaluated as a measure of metabolic function that evaluates mitochondrial activity to determine the extent of cell proliferation within a culture. This assay is based on the reduction of yellow tetrazolium salt to purple formazan by mitochondrial reductases enzyme in viable cells, resulting in a color changed that confers a change in absorbance.

[1] = CIMA assay, cell viability, CCD1079SK; conditions: human, CCD1079SK fibroblasts (noncancerous, proliferating), Average cell viability, CCD
Description: as §1, §2

[2] = system: CCD1079SK (fibroblast, noncancerous but proliferating); assay: CIMA assay, cell viability, CCD1079SK; conditions: CCD
Description: as §1, §2

[3] = system: U373 (glioblastoma-astrocytoma); assay: CIMA assay, cell viability, U373; conditions: for Fold change in viability AVG / In vitro activity against cancer cell lines, U373 AVG: U373
[4] = system: SKOV3 (ovarian adenocarcinoma); assay: CIMA assay, cell viability, SKOV3; conditions: for Fold change in viability AVG / In vitro activity against cancer cell lines, SKOV AVG: SKOV
Description: as §1, §2

PC3 = assay: CIMA assay, cell viability, PC3; conditions: for Fold change in viability AVG / In vitro activity against cancer cell lines, PC3 AVG: PC3
MDA-MB [5] = conditions: MDA-MB
MDA-MB [6] = assay: cells; conditions: Homo sapiens, read-out: Average cell viability, MDA-MB; for viability at 100 µg/mL: 100 ug/mL
[7] = system: THP-1 (acute monocytic leukemia); assay: CIMA assay, cell viability, THP-1; conditions: for Fold change in viability AVG / In vitro activity against cancer cell lines, THP-1 AVG: THP-1
[8] = Homo sapiens, A549, read-out: Average cell viability, A549, 100 ug/mL
[9] = Homo sapiens, U373 MG, read-out: Average cell viability, U373, 100 ug/mL
[10] = Homo sapiens, SK-OV-3, read-out: Average cell viability, SKOV, 100 ug/mL
[11] = Homo sapiens, PC-3, read-out: Average cell viability, PC3, 100 ug/mL
[12] = Homo sapiens, THP-1, read-out: Average cell viability, THP-1, 100 ug/mL

CCCCCC(O)/C=C/C=C/CCCCCCCC(=O)O (stereo not drawn) [77-31-34-6 A, 13-hydroxyoctadeca-9E,11E-dienoic acid]
Fold change in viability AVG (A549 (lung carcinoma); 1.00 ug/mL (so in the source)): 0.08 | In vitro activity against cancer cell lines, A549 AVG (A549 (lung carcinoma); 100 ug/mL): 0.08 | viability at 100 µg/mL (A549 (lung carcinoma); [8]): 7% | viability at 72 h, 100 ug/mL [1]: 13% | Fold change in viability AVG ([2]; 1.00 ug/mL (so in the source)): 0.14 | viability at 100 µg/mL [3, 9]: 4% | Fold change in viability AVG ([3]; 1.00 ug/mL (so in the source)): 0.04 | In vitro activity against cancer cell lines, U373 AVG ([3]; 100 ug/mL): 0.04 | viability at 100 µg/mL [4, 10]: 53% | Fold change in viability AVG ([4]; 1.00 ug/mL (so in the source)): 0.57 | In vitro activity against cancer cell lines, SKOV AVG ([4]; 100 ug/mL): 0.57 | viability at 100 µg/mL (PC3; [11]): 5% | Fold change in viability AVG (PC3; 1.00 ug/mL (so in the source)): 0.05 | In vitro activity against cancer cell lines, PC3 AVG (PC3; 100 ug/mL): 0.05 | Fold change in viability AVG (MDA-MB [5]; 1.00 ug/mL (so in the source)): 0.13 | In vitro activity against cancer cell lines, MDA-MB AVG (MDA-MB [5]; 100 ug/mL): 0.13 | viability at 100 µg/mL (MDA-MB [6]): 12% | viability at 100 µg/mL [7, 12]: 6% | Fold change in viability AVG ([7]; 1.00 ug/mL (so in the source)): 0.07 | In vitro activity against cancer cell lines, THP-1 AVG ([7]; 100 ug/mL): 0.07

CCCCCCCCCCCCCCCC(=O)OCC(O)CO (stereo not drawn) [77-38-41-1 B, MAG (C16:0)]
Fold change in viability AVG (A549 (lung carcinoma); 50 ug/mL): 0.81 | In vitro activity against cancer cell lines, A549 AVG (A549 (lung carcinoma); 50 ug/mL): 0.81 | Fold change in viability AVG (A549 (lung carcinoma); 100 ug/mL): 0.30 | In vitro activity against cancer cell lines, A549 AVG (A549 (lung carcinoma); 100 ug/mL): 0.30 | viability at 50 µg/mL (A549 (lung carcinoma); Homo sapiens, A549, read-out: Average cell viability, A549, 50 ug/mL): 69% | viability at 100 µg/mL (A549 (lung carcinoma); [8]): 26% | viability at 72 h, 50 ug/mL ([1]; 50 ug/mL): 78% | viability at 72 h, 100 ug/mL [1]: 72% | Fold change in viability AVG ([2]; 50 ug/mL): 0.85 | Fold change in viability AVG ([2]; 100 ug/mL): 0.79 | viability at 50 µg/mL ([3]; Homo sapiens, U373 MG, read-out: Average cell viability, U373, 50 ug/mL): 13% | viability at 100 µg/mL [3, 9]: 7% | Fold change in viability AVG ([3]; 50 ug/mL): 0.13 | In vitro activity against cancer cell lines, U373 AVG ([3]; 50 ug/mL): 0.13 | Fold change in viability AVG ([3]; 100 ug/mL): 0.07 | In vitro activity against cancer cell lines, U373 AVG ([3]; 100 ug/mL): 0.07 | viability at 50 µg/mL ([4]; Homo sapiens, SK-OV-3, read-out: Average cell viability, SKOV, 50 ug/mL): 52% | viability at 100 µg/mL [4, 10]: 22% | Fold change in viability AVG ([4]; 50 ug/mL): 0.56 | In vitro activity against cancer cell lines, SKOV AVG ([4]; 50 ug/mL): 0.56 | Fold change in viability AVG ([4]; 100 ug/mL): 0.24 | In vitro activity against cancer cell lines, SKOV AVG ([4]; 100 ug/mL): 0.24 | viability at 50 µg/mL (PC3; Homo sapiens, PC-3, read-out: Average cell viability, PC3, 50 ug/mL): 52% | viability at 100 µg/mL (PC3; [11]): 15% | Fold change in viability AVG (PC3; 50 ug/mL): 0.54 | In vitro activity against cancer cell lines, PC3 AVG (PC3; 50 ug/mL): 0.54 | Fold change in viability AVG (PC3; 100 ug/mL): 0.16 | In vitro activity against cancer cell lines, PC3 AVG (PC3; 100 ug/mL): 0.16 | Fold change in viability AVG (MDA-MB [5]; 50 ug/mL): 0.70 | In vitro activity against cancer cell lines, MDA-MB AVG (MDA-MB [5]; 50 ug/mL): 0.70 | Fold change in viability AVG (MDA-MB [5]; 100 ug/mL): 0.30 | In vitro activity against cancer cell lines, MDA-MB AVG (MDA-MB [5]; 100 ug/mL): 0.30 | viability at 50 µg/mL (MDA-MB [6]; 50 ug/mL): 64% | viability at 100 µg/mL (MDA-MB [6]): 28% | viability at 50 µg/mL ([7]; Homo sapiens, THP-1, read-out: Average cell viability, THP-1, 50 ug/mL): 96% | viability at 100 µg/mL [7, 12]: 105% | Fold change in viability AVG ([7]; 50 ug/mL): 1.10 | In vitro activity against cancer cell lines, THP-1 AVG ([7]; 50 ug/mL): 1.10 | Fold change in viability AVG ([7]; 100 ug/mL): 1.19 | In vitro activity against cancer cell lines, THP-1 AVG ([7]; 100 ug/mL): 1.19
